PMC11347161, “Sequence diversity of apidaecin-like peptides arresting the terminating ribosome” (Nucleic Acids Research, 2024)
Residues, ends and D or L forms follow the SMILES beside them. *: point of attachment. Orn(α-tetramethylguanidino) = CN(C)C(=N[C@@H](CCCN)C(=O)*)N(C)C

Legend:
E. coli BL21 cells = test: Negative (depletion) selection of clones expressing Api variants, NGS; assay type: cell-based; conditions: log2-fold change of clone abundance, three replicates, edgeR
Description: Prior to the library screening, pilot experiments were conducted to optimize arabinose concentration. To achieve this, E. coli BL21 cells transformed with the pApi plasmid carrying the wt Api gene were plated on LB/agar plates supplemented with Amp and increasing concentrations of arabinose in the 0.05–0.2% range. […] Subsequent library depletion experiments were carried out on plates containing 0.05% arabinose.
For the negative selection targeted at depleting the clones expressing active Api-like peptides, the 2 ml library stock containing a total of ∼2 × 10^9 colony forming units (cfu) was thawed, diluted 3-fold in LB medium and allowed to recover for 30 min at 37°C. Subsequently, the cultures with the recovered cells were thoroughly mixed, and equal volumes (300 μl) were plated on ten LB/Amp plates supplemented with 2% glucose (for the total library) or ten LB/Amp plates supplemented with 0.05% arabinose (for the library depleted of clones expressing active Api variants). After incubation at 37°C for 16 h, clones were washed off the plates and cell suspensions were used for preparation of the total plasmid, resulting in the pApi(Glu) and pApi(Ara) plasmid preps. The depletion experiments were carried out in three independent replicates.
For deep sequencing of the genes encoding Api-like peptides, the peptide-coding genes were PCR-amplified from the total pApi(Glu) and pApi(Ara) plasmids. Two 50 μl PCR reactions were carried out for each sample using Q5 DNA polymerase (New England Biolabs). The reactions were run in the manufacturer provided buffer, each reaction containing 20 ng of plasmid DNA and 10 pmol of primers Api_Lib_F_i5X and Api_Lib_R_i7X (Supplementary Table S2) which added specific bar codes to the individual samples. PCR amplification was carried out under the following conditions: 98°C, 30 s; 10 cycles of [98°C/10 s, 56°C/20 s, 72°C/10 s]; 72°C 120 s. The PCR products were size-fractionated and extracted from the denaturing 8% polyacrylamide gel. Bar-coded DNA libraries (Supplementary Figure S1B) were combined and sequenced on Illumina MiSeq after being spiked in with PhiX Control v3 library (Illumina) to compensate for sequence diversity of the sample.
Sequencing has generated >350 million total reads for the three unselected samples and > 300 million total reads for the depleted library samples. The raw reads were trimmed to the size of the peptide gene and those containing internal ambiguous bases or being less than 60 bases in length were discarded. The nucleotide sequences were translated into amino acid sequences and the peptides lacking N-terminal methionine or deviating from the size of the expected sequence were eliminated. Peptides with <100 reads in each of the pApi(Glu) samples were also discarded. Subsequently, the filtered data underwent differential abundance analysis using the standard workflow of edgeR within the R/Bioconductor package ([27]). This analysis generated logFC (the log2-fold change of unique peptides between Glu and Ara samples), q-values (adjusted P-values with the FDR correction), and log10 CPM values (log counts per million), detailed in Dataset 1. A volcano plot was generated in R to visualize the differential abundance of unique peptides based on these parameters.

E. coli, BL21 cells = assay type: cell-based; conditions: E. coli BL21, broth microdilution, conducted in triplicate
Summary of the method: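 Peptide MICs against E. coli BL21 cells were determined in triplicate by broth microdilution. Tests were run in LB, 33% TSB, or RPMI/serum (RPMI-1640:MHB:FBS = 100:5:20).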

[1] = sheet Negative Selection logFC>1, q<0.005 (putatively functional variants), arabinose vs glucose, endogenously expressed peptide
[2] = sheet diff-NS-All, induced (0.05% arabinose) vs non-induced (2% glucose), endogenously expressed peptide with N-terminal Met

| Compound | Ara/Glu: logFC (E. coli BL21 cells; [1]) | Ara/Glu: logFC (E. coli BL21 cells; [2]) | MIC, TSB (E. coli, BL21 cells; 33% TSB medium) [µM] | MIC, LB (E. coli, BL21 cells; LB medium) [µM] | MIC, RPMI/Serum (E. coli, BL21 cells; RPMI/Serum medium (RPMI-1640:MHB:FBS = 100:5:20)) [µM] |
| --- | --- | --- | --- | --- | --- |
| MTNNRKVYEPEPRPPHPRL* [endogenously expressed Api library variant T2,K6,E9,E11 (numbering includes Met)] | -4.06 | -4.06 | – | – | – |
| MLNNIGVQVPKPRPPHPRL* [endogenously expressed Api library variant L2,I5,G6,Q8,V9,K11 (numbering includes Met)] | – | -3.95 | – | – | – |
| MGNNRNVYIAQPRPYHPRI* [endogenously expressed Api library variant N6,A10,Y15,I19 (numbering includes Met)] | – | -4.88 | – | – | – |
| MGNNRKVYIGEPRPPYPRL* [endogenously expressed Api library variant K6,G10,E11,Y16 (numbering includes Met)] | -4.01 | -4.01 | – | – | – |
| CC(C)C[C@H](NC(=O)[C@H](CCCNC(=N)N)NC(=O)[C@@H]1CCCN1C(=O)[C@H](Cc1c[nH]cn1)NC(=O)[C@@H]1CCCN1C(=O)[C@H](CO)NC(=O)[C@H](CCCNC(=N)N)NC(=O)[C@@H]1CCCN1C(=O)[C@@H](NC(=O)[C@H](CC(N)=O)NC(=O)[C@H](Cc1ccc(O)cc1)NC(=O)[C@H](Cc1ccc(O)cc1)NC(=O)[C@@H](NC(=O)[C@@H]1CCCN1C(=O)[C@H](CCCNC(=N)N)NC(=O)[C@H](CCCCN)NC(=O)[C@H](CC(N)=O)NC(=O)[C@H](CCCN)N=C(N(C)C)N(C)C)C(C)C)[C@@H](C)O)C(=O)O [Peptide K3Y8N9T10S13] ({Orn(α-tetramethylguanidino)}-NKRPVYYNTPRSPHPRL-OH; C-terminus assumed) | – | – | >64 | >64 | >64 |
